Results reported in patent US10899790B2, “Method for modifying T cell population” (OSAKA UNIVERSITY, priority 2016, dated 2021).

Molecular target: T1, Retinol Dehydrogenase 10 (RDH10) (Homo sapiens, UniProt Q8IZV5)
T1 construct: expressed in transfected cells; host or cells: 293T (microsomal fraction)
T1 sequence (Q8IZV5 1-341): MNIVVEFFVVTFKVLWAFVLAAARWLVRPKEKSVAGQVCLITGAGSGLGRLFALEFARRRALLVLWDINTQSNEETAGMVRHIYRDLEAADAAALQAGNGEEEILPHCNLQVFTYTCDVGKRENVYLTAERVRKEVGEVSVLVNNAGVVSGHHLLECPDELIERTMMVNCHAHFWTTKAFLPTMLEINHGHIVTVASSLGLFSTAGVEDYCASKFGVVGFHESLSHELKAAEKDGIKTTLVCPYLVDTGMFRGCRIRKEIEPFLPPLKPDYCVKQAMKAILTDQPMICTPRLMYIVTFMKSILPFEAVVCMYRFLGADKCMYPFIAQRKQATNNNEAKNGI
Test: Inhibition of RDH10 enzyme activity (microsomal fraction of RDH10-expressed 293T, all-trans retinol to all-trans retinal, HPLC)
Type: biochemical
Conditions: final concentration of 20 μM; relative to DMSO control (FIG. 1)
Protocol: All-trans retinol, BSA, and NAD (nicotinamide adenine dinucleotide) as a coenzyme were added to a buffer for reaction (90 mM potassium phosphate buffer, pH7.4, 40 mM KCl) so as to have final concentrations of 10 μM, 10 μM, and 1 mM respectively. This mixture was taken in siliconized tubes by 200 μl for each, the microsomal fractions separated from 293T and RDH10-expressed 293T were added to separate tubes by 10 μl for each, and the mixtures were allowed to react at 37° C. for 15 minutes. After 200 μl of methanol was added to the reaction mixtures to stop the reaction, retinoid was extracted using hexane and concentrated. The concentrated retinoid was dissolved in 150 μl of acetonitrile, separated by HPLC, and subjected to the detection of ultraviolet light absorption at a wavelength of 350 nm, whereby the substrate (all-trans retinol) and the product (all-trans retinal) were detected. In addition, standard samples (all-trans retinol and all-trans retinal) were separated by HPLC and the retention times of the respective standard samples were determined in advance. The solvent for HPLC was acetonitrile: 50 mM ammonium acetate=75:25. As the separation column, Syhergi 4 μm Hydro-RP 80A (manufactured by Phenomenex) was used. In addition, the flow rate was 2.0 ml/min. The RDH10 enzyme activity was calculated by reading the amount of product per fixed time from the chart of HPLC.
All-trans retinol, BSA, and NAD (nicotinamide adenine dinucleotide) as a coenzyme were added to a buffer for reaction (90 mM potassium phosphate buffer, pH7.4, 40 mM KCl) so as to have final concentrations of 10 μM, 10 μM, and 1 mM respectively. This mixture was taken in siliconized tubes by 200 μl for each, the microsomal fraction separated from RDH10-expressed 293T was added to separate tubes by 10 μl for each. The RDH10 inhibitor dissolved in DMSO was added to each tube so as to have a final concentration of 20 μM, and the same amount of DMSO was added to the control tube. The mixture was allowed to react at 37° C. for 15 to 30 minutes, 200 μl of methanol was added to the reaction mixtures, and then retinoid was extracted using hexane and concentrated. The concentrated retinoid was dissolved in 150 μl of acetonitrile, separated by HPLC, and subjected to the detection of ultraviolet light absorption at a wavelength of 350 nm, whereby the substrate (all-trans retinol) and the product (all-trans retinal) were detected. In addition, standard samples (all-trans retinol and all-trans retinal) were separated by HPLC and the retention times of the respective standard samples were determined in advance. The solvent for HPLC was acetonitrile: 50 mM ammonium acetate=75:25. As the separation column, Syhergi 4 μm Hydro-RP 80A (manufactured by Phenomenex) was used. The flow rate was 2.0 ml/min.
The enzyme activity was determined by the waveform area of the product (all-trans retinal) with respective to the waveform area of the non-reacted substrate (all-trans retinol), and the relative value with respect to the enzyme activity in the control is illustrated in FIG. 1. The error bars indicate SD (standard deviation).

RDH10 enzyme activity inhibitory action	Compound
relatively potent	COC(=O)c1ccccc1NC(=O)NC1CC[C@]2(C)[C@H]3C(=O)C=C4[C@H]5C[C@@](C)(C(=O)OC)CC[C@]5(C)CC[C@@]4(C)[C@]3(C)CC[C@H]2C1(C)C (stereo partly drawn) [Compound No. 9, (2S,4aS,6aS,6bR,8aR,12aS,12bR,14bS)-methyl 10-(3-(2-(methoxycarbonyl)phenyl)ureido)-2,4a,6a,6b,9,9,12a-heptamethyl-13-oxo-1,2,3,4,4a,5,6,6a,6b,7,8,8a,9,10,11,12,12a,12b,13,14b-icosahydropicene-2-carboxylate]
relatively potent	CCOC(=O)CNC(=O)NC1CC[C@]2(C)[C@H]3C(=O)C=C4[C@H]5C[C@@](C)(C(=O)OC)CC[C@]5(C)CC[C@@]4(C)[C@]3(C)CC[C@H]2C1(C)C (stereo partly drawn) [Compound No. 10, (2S,4aS,6aS,6bR,8aR,12aS,12bR,14bS)-methyl 10-(3-(2-ethoxy-2-oxoethyl)ureido)-2,4a,6a,6b,9,9,12a-heptamethyl-13-oxo-1,2,3,4,4a,5,6,6a,6b,7,8,8a,9,10,11,12,12a,12b,13,14b-icosahydropicene-2-carboxylate]
relatively potent	COC(=O)[C@@]1(C)CC[C@]2(C)CC[C@]3(C)C(=CC(=O)[C@@H]4[C@@]5(C)CCC(NC(=O)N[C@@H](Cc6ccccc6)C(=O)O)C(C)(C)[C@@H]5CC[C@]43C)[C@H]2C1 (stereo partly drawn) [Compound No. 14, (2S)-2-(3-((4aR,6aR,6bS,8aS,11S,12aS,14aR,14bS)-11-(methoxycarbonyl)-4,4,6a,6b,8a,11,14b-heptamethyl-14-oxo-1,2,3,4,4a,5,6,6a,6b,7,8,8a,9,10,11,12,12a,14,14a,14b-icosahydropicen-3-yl)ureido)-3-phenyl propanoic acid]

Test system: Healthy human-derived CD4+CD45RO+T cells
Test: Effect in vitro: CD62L and CD127 expression in cultured T cells by flow cytometry
Type: cell-based
Conditions: 20 μM; anti-CD3, anti-CD28, IL-2; vs DMSO control (FIG. 2)
Protocol: Healthy human-derived CD4^+CD45RO^+T cells (1×10^5) were cultured in the presence of anti-CD3 antibody (2 μg/ml), anti-CD28 antibody (2 μg/ml), IL-2 (20 IU/ml) and RDH10 inhibitors (Compound No. 16 (RDHI-032), Compound No. 17 (RDHI-033), and Compound No. 18 (RDHI-034)) (20 μM for each). In addition, DMSO was used as a control for the RDH10 inhibitor. After seven days […] resuspended in a fresh culture medium to which IL-2 was not added, and cultured for one more day. Thereafter, the expression of CD62L and CD127 in T cells was analyzed by flow cytometry. The culture solution used was X-VIVO15 to which AB serum was added to have a final concentration of 10%.

Compound	amplification of memory T cells (CD62L+CD127+T cells)
COC(=O)[C@@]1(C)CC[C@]2(C)CC[C@]3(C)C(=CC(=O)[C@@H]4[C@@]5(C)CCC(NC(=O)c6ccccc6C(=O)O)C(C)(C)[C@@H]5CC[C@]43C)[C@H]2C1 (stereo partly drawn) [Compound No. 3, 2-((4aR,6aR,6bS,8aS,11S,12aS,14aR,14bS)-11-(methoxycarbonyl)-4,4,6a,6b,8a,11,14b-heptamethyl-14-oxo-1,2,3,4,4a,5,6,6a,6b,7,8,8a,9,10,11,12,12a,14,14a,14b-icosahydropicen-3-ylcarbamoyl)benzoic acid]	tended to amplify memory cells
CC1(C)C(N)CC[C@]2(C)[C@H]3C(=O)C=C4[C@@H]5C[C@@](C)(C(=O)O)CC[C@]5(C)CC[C@@]4(C)[C@]3(C)CC[C@@H]12.Cl (stereo partly drawn) [Compound No. 21, (2S,4aS,6aS,6bR,8aR,12aS,12bR,14bR)-10-amino-2,4a,6a,6b,9,9,12a-heptamethyl-13-oxo-1,2,3,4,4a,5,6,6a,6b,7,8,8a,9,10,11,12,12a,12b,13,14b-icosahydropicene-2-carboxylic acid hydrochloride]	tended to amplify memory cells
CC1(C)C(=NO)CC[C@]2(C)[C@H]3C(=O)C=C4[C@H]5C[C@@](C)(C(N)=O)CC[C@]5(C)CC[C@@]4(C)[C@]3(C)CC[C@@H]12 [RDHI-038, (2S,4aS,6aS,6bR,8aR,12aS,12bR,14bS)-10-(hydroxyimino)-2,4a,6a,6b,9,9,12a-heptamethyl-13-oxo-1,2,3,4,4a,5,6,6a,6b,7,8,8a,9,10,11,12,12a,12b,13,14b-icosahydropicene-2-carboxamide]	tended to amplify memory cells
CC1(C)C(N)CC[C@]2(C)[C@H]3C(=O)C=C4[C@H]5C[C@@](C)(C(=O)O)CC[C@]5(C)CC[C@@]4(C)[C@]3(C)CC[C@@H]12.Cl (stereo partly drawn) [Compound No. 20, (2S,4aS,6aS,6bR,8aR,12aS,12bR,14bS)-10-amino-2,4a,6a,6b,9,9,12a-heptamethyl-13-oxo-1,2,3,4,4a,5,6,6a,6b,7,8,8a,9,10,11,12,12a,12b,13,14b-icosahydropicene-2-carboxylic acid hydrochloride]	tended to amplify memory cells
COC(=O)[C@@]1(C)CC[C@]2(C)CC[C@]3(C)C(=CC(=O)[C@@H]4[C@@]5(C)CCC(NC(=O)Nc6ccccc6C(=O)O)C(C)(C)[C@@H]5CC[C@]43C)[C@H]2C1 (stereo partly drawn) [Compound No. 12, 2-(3-((4aR,6aR,6bS,8aS,11S,12aS,14aR,14bS)-11-(methoxycarbonyl)-4,4,6a,6b,8a,11,14b-heptamethyl-14-oxo-1,2,3,4,4a,5,6,6a,6b,7,8,8a,9,10,11,12,12a,14,14a,14b-icosahydropicen-3-yl)ureido)benzoic acid]	tended to amplify memory cells
COC(=O)[C@@]1(C)CC[C@]2(C)CC[C@]3(C)C(=CC(=O)[C@@H]4[C@@]5(C)CCC(NC(=O)/C=C\C(=O)O)C(C)(C)[C@@H]5CC[C@]43C)[C@@H]2C1 (stereo partly drawn) [Compound No. 6, (Z)-4-((4aR,6aR,6bS,8aS,11S,12aR,14aR,14bS)-11-(methoxycarbonyl)-4,4,6a,6b,8a,11,14b-heptamethyl-14-oxo-1,2,3,4,4a,5,6,6a,6b,7,8,8a,9,10,11,12,12a,14,14a,14b-icosahydropicen-3-ylamino)-4-oxobut-2-enoic acid]	tended to amplify memory cells
CC1(C)C(NC(=O)c2ccccc2C(=O)O)CC[C@]2(C)[C@H]3C(=O)C=C4[C@@H]5C[C@@](C)(C(=O)O)CC[C@]5(C)CC[C@@]4(C)[C@]3(C)CC[C@@H]12 (stereo partly drawn) [Compound No. 27, (2S,4aS,6aS,6bR,8aR,12aS,12bR,14bR)-10-(2-carboxybenzamide)-2,4a,6a,6b,9,9,12a-heptamethyl-13-oxo-1,2,3,4,4a,5,6,6a,6b,7,8,8a,9,10,11,12,12a,12b,13,14b-icosahydropicene-2-carboxylic acid]	tended to amplify memory cells
COC(=O)[C@H](Cc1ccccc1)NC(=O)NC1CC[C@]2(C)[C@H]3C(=O)C=C4[C@H]5C[C@@](C)(C(=O)OC)CC[C@]5(C)CC[C@@]4(C)[C@]3(C)CC[C@H]2C1(C)C (stereo partly drawn) [Compound No. 11, (2S,4aS,6aS,6bR,8aR,12aS,12bR,14bS)-methyl 10-(3-((S)-1-methoxy-1-oxo-3-phenylpropan-2-yl)ureido)-2,4a,6a,6b,9,9,12a-heptamethyl-13-oxo-1,2,3,4,4a,5,6,6a,6b,7,8,8a,9,10,11,12,12a,12b,13,14b-icosahydropicene-2-carboxylate]	tended to amplify memory cells
CC1(C)C(N)CC[C@]2(C)[C@H]3C(=O)C=C4[C@H]5C[C@@](C)(C(N)=O)CC[C@]5(C)CC[C@@]4(C)[C@]3(C)CC[C@@H]12 (stereo partly drawn) [Compound No. 19, (2S,4aS,6aS,6bR,8aR,12aS,12bR,14bS)-10-amino-2,4a,6a,6b,9,9,12a-heptamethyl-13-oxo-1,2,3,4,4a,5,6,6a,6b,7,8,8a,9,10,11,12,12a,12b,13,14b-icosahydropicene-2-carboxamide]	tended to amplify memory cells
